According to patent US8729023B2 (priority 2002, dated 2014):
Where two headings read alike, the source gives them in different places. *1 amine or outer side, *2 acyl side, *3 side chain or, on linkers, in order; H or OH if unused. Where a SMILES comes first, the peptide text is derived from it. Suc = O=C(CCC(=O)[*:2])[*:1]

Legend:
[1] = Effect of IRL1620 on plasma pharmacokinetics of paclitaxel, HPLC-UV; assay type: in vivo, rat; conditions: normal or tumor bearing rats; paclitaxel i.v. 3 mg/kg 15 minutes after IRL1620 3 nmol/kg
Description: Virgin female Sprague Dawley rats (Harlan Co., Madison, Wis.), 48 days old (120-140 g) were used for this study. Upon arrival, all rats were housed three to a cage, in a room with controlled temperature (23±1° C.), humidity (50±10%) and artificial light (0600-1800 hr). The rats were given food and water ad libitum. The experiments were begun only after the rats have been acclimatized to the environment for at least 4 days.
N-methyl-n-nitrosourea (MNU) was administered at a dose of 50 mg/kg, i.p. and rats were palpated twice weekly. Once tumors reached about 75-100 mm^3, pharmacokinetic studies were performed.
HPLC-UV studies. […]
Plasma samples were analyzed for paclitaxel using an HPLC system. […] A 100 μL (lower standard curve and samples collected after IV administration) aliquot of the reconstituted material was injected into a 4 mm NovaPak 150×3.9 mm C18 column (Waters Associates, Milford, Mass.) preceded by a 4 mm NovaPak 20×3.9 mm C18 precolumn using a Waters 2695 separations module connected to a Waters 2487 absorbance detector set at 227 nm. […] Plasma concentrations for paclitaxel were calculated from the ratio of the area of the paclitaxel peak to the area of the N-cyclohexyl benzamide peak using least-squares linear regression and weighting by 1/x. Within day and between days variability measured by a coefficient of variation was <10%. […]

[2] = tested on: JHU-4 (MAT-LyLu) prostate tumor; assay: Effect of IRL1620 on [^14C]doxorubicin concentration in tumor and organs of prostate tumor bearing rats; assay type: in vivo, rat; conditions: for increase in concentration of [^14C]doxorubicin in tumor compared to saline treated rats: sacrifice 3 hours after
Description: Prostate tumors were induced in male Copenhagen rats using JHU-4 (MAT-LyLu) cells obtained from ATCC (Manassas, Va.). See Gaddipati et al., J Exp Ther Oncol, 4(3): 203-12 (2004) which is hereby incorporated by reference. The cells were maintained in RPMI 1640 medium supplemented with fetal bovine serum (10%) in a humidified incubator containing 5% CO2 at 37° C. Hair was shaved from the dorsal side of the neck, and animals were inoculated with 10,000 JHU-4 (MAT-LyLu) cells in 100 μl phosphate buffered saline by subcutaneous (s.c.) injection. Tumor appearance and location was monitored by manual palpation and tumor diameters were measured with a digital caliper. Experimental procedures began once tumor size reached about 200 mm^3.
Biodistribution Study. Tumor bearing rats were randomly grouped (N=6/group) to receive saline or IRL1620 (1, 3 or 6 nmol/kg) via the tail vein in a final volume of 0.2 ml. Rats from each group then received [^14C]doxorubicin (1 μCi/rat) i.v. in a final volume of 1.0 ml 15 minutes after saline or IRL1620 administration. Animals were then sacrificed 3 hours after [^14C]doxorubicin administration. The concentration of [^14C]doxorubicin in the tumor, heart, brain, kidneys, liver, lungs, bone marrow, prostate, skeletal muscles and spleen were examined. Specifically, tumor and organs were sliced into small pieces. The femurs from both legs were separated and weighed with bone marrow flushed out using a syringe containing tissue solubilizer. About 500 mg of tissue or tumor was placed in separate vials containing tissue solubilizer (6 ml) and incubated in a water bath at about 50° C. The vials were removed from the water bath after the tissue or tumor was dissolved and 1.2 ml of 10% glacial acetic acid was added. The contents of the vial were then equally divided into 3 vials and 15 ml of liquid scintillation cocktail (Safety Solve, RPI Corp, Chicago, Ill.) was added to each vial and kept overnight for equilibration. The radioactivity in the tubes was counted using a liquid scintillation counter (Beckman Coulter, LS 6500).

[3] = tested on: MNU-induced breast tumors; conditions: IRL1620 3 nmol/kg alone; 5 doses; 30 days after final dose
[4] = tested on: JHU-4 (MAT-LyLu) prostate tumor; conditions: IRL1620 3 nmol/kg alone; day 19
[5] = tested on: JHU-4 (MAT-LyLu) prostate tumor; conditions: IRL1620 3 nmol/kg alone; day 16
[6] = tested on: human melanoma cells (UISO-MEL-2) tumor; conditions: melanoma mice
[7] = tested on: MNU-induced breast tumor; assay: Effect of IRL1620 on bio-distribution of [^3H] paclitaxel in tumor and major organs of breast tumor bearing rats; conditions: IRL1620 3 nmol/kg
[8] = paclitaxel plasma, three compartmental model, tumor bearing rats, after vehicle or IRL1620 3 nmol/kg

CC[C@H](C)[C@H](NC(=O)[C@H](CC(=O)O)NC(=O)[C@H](CC(C)C)NC(=O)[C@H](Cc1c[nH]cn1)NC(=O)[C@H](C)NC(=O)[C@H](Cc1ccccc1)NC(=O)[C@H](Cc1ccc(O)cc1)NC(=O)[C@@H](NC(=O)[C@H](C)NC(=O)[C@H](CCC(=O)O)NC(=O)[C@H](CCC(=O)O)NC(=O)[C@H](CC(=O)O)NC(=O)CCC(=O)O)C(C)C)C(=O)N[C@H](C(=O)N[C@@H](Cc1c[nH]c2ccccc12)C(=O)O)[C@@H](C)CC [IRL1620, N-suc-[Glu9, Ala11, 15]ET-1 (8-21)] (Suc-DEEAVYFAHLDIIW-OH)
pharmacokinetic profile of paclitaxel [1]: not affected | change in the uptake of [^14C]doxorubicin in tumor or other tissues ([2]; 1 nmol/kg IRL1620 15 minutes before [^14C]doxorubicin): did not produce any significant change | increase in concentration of [^14C]doxorubicin in tumor compared to saline treated rats ([2]; 3 nmol/kg IRL1620 15 minutes before [^14C]doxorubicin): 115.85% | increase in concentration of [^14C]doxorubicin in tumor compared to saline treated rats ([2]; 6 nmol/kg IRL1620 15 minutes before [^14C]doxorubicin): 80.02% | accumulation of [^14C]doxorubicin in the heart, brain, kidneys, liver, lungs, bone marrow, prostate, skeletal muscles or spleen compared to control animals ([2]; IRL1620 1, 3 or 6 nmol/kg): No dose of IRL1620 produced significant increases | effect on the pharmacokinetic profile of paclitaxel (non-compartmental analysis, tumor bearing rats, IRL1620 3 nmol/kg i.v. 15 minutes before paclitaxel): did not affect | Lambda (paclitaxel plasma, non-compartmental, tumor bearing rats, paclitaxel i.v. 15 minutes after vehicle or IRL1620 3 nmol/kg): 0.10 ± 0.05 | K10 [8]: 1.72 ± 0.57 | K12 [8]: 34.93 ± 23.26 | K13 [8]: 3.92 ± 1.88 | paclitaxel compartmental pharmacokinetic parameters in the IRL1620 treated group versus the vehicle treated group (three compartmental model, IRL1620 3 nmol/kg 15 minutes before paclitaxel): not significantly different | increase in body weight compared to baseline [3]: < 10% | body weight [4]: 175.72 ± 2.35 g | body weight [5]: 202.2 ± 7.28 g | percent difference in body weight gain from the beginning of the experiment [5]: 14.19±1.66% | accumulation of [^3H]paclitaxel in the heart, kidneys, liver, lungs or spleen compared to saline treated animals ([6]; IRL1620 3 nmol/kg): did not produce significant increases | increase in tumor [^3H]paclitaxel compared to vehicle treated mice ([6]; IRL1620 3 nmol/kg 15 minutes before [^3H]paclitaxel): 572.99% | tumor [^3H]paclitaxel concentration ([6]; IRL1620 3 nmol/kg 15 minutes before [^3H]paclitaxel, sacrifice 3 hours after): 274.28 nmol/g tissue | accumulation of paclitaxel in the liver, lungs, kidneys and spleen compared to control animals [7]: did not significantly alter | increase in tumor paclitaxel concentration compared to saline treated rats ([7]; [^3H] paclitaxel administered 15 minutes after IRL1620, sacrifice 3 hours after paclitaxel): 277.1% | increase in tumor paclitaxel concentration compared to saline treated rats ([7]; [^3H] paclitaxel administered 240 minutes after IRL1620): 34.7%
